Measurements as given in US20200172530A1, “Small Molecule Sensitization of BAX Activation for Induction of Cell Death” (Dana-Farber Cancer Institute, Inc., priority 2017, published 2020).

Key:
[1] = Dynamic light scattering; format: physicochemical; details: 20 mM potassium phosphate buffer, pH 6.2
Method: Samples were measured at room temperature on a DynaPro-99 instrument with a 90° detector angle using a 10 second acquisition time per measurement. Compounds were diluted from a 100 mM stock in 20 mM potassium phosphate buffer, pH 6.2 with 1% DMSO final concentration.

[2] = target: T1, recombinant, full length BAX (Homo sapiens, UniProt Q07812); assay: Fluorescence polarization assay (direct and competitive); format: binding; details: FITC-peptide 25 nM, BAX 250 nM
T1 construct: made in house; host or cells: E. coli BL21 (DE3)
Method: FITC-peptide (25 nM) was incubated with a serial dilution of recombinant, full length BAX in binding buffer (20 mM Potassium phosphate, pH 6.2). For competitive FP, FITC-peptide (25 nM) was mixed with a fixed concentration of BAX (250 nM) and incubated with a serial dilution of acetylated peptide or a compound described herein. Fluorescence polarization was measured at equilibrium using a SpectraMax M5 microplate reader. Nonlinear regression analysis of dose-response curves was performed using Prism software 7 (GraphPad).

[3] = target: T2, BAX (Homo sapiens, UniProt Q07812); assay: Liposomal release assay (ANTS/DPX); format: biochemical
T2 construct: Recombinant, full-length BAX was expressed in BL21 (DE3) E. coli using the pTYB1 vector; made in house; host or cells: E. coli BL21 (DE3)
Method: Briefly, a lipid mixture containing a 48:28:10:10:4 molar ratio of phosphatidylcholine, phosphatidylethanolamine, phosphatidylinositol, dioleoyl phosphatidylserine, and tetraoleolyl cardiolipin (Avanti Polar Lipids) was generated in chloroform. Lipid films were formed by evaporation of solvent, initially under nitrogen gas and then by overnight vacuum, followed by storage at −80° C. under nitrogen. […] Liposomes were formed by 5 freeze/thaw cycles followed by extrusion through a 100 nm polycarbonate membrane and purified using a Sepharose CL-2B size exclusion column. […] ANTS/DPX release was monitored over time at room temperature in a spectrofluorometer (Tecan Infinite M1000) using an excitation wavelength of 355 nm, an emission wavelength of 540 nm, and a bandwidth of 20 nm. Maximal release was determined by the addition of Triton X-100 to a final concentration of 0.2% (v/v). Percent release was calculated according to Equation 1 shown below, where F is the observed release, and F0 and F100 are baseline and maximal fluorescence, respectively.
First, baseline fluorescence with liposomes and compound alone was read, followed by the addition of BAX to evaluate for direct activation; then, BIM SAHBA2 was added to this mixture and the effect of the combination monitored, and compared with the triggering activity of BIM SAHBA2 and BAX in the absence of compound.

[4] = NMR-based detection of small molecule aggregators; format: physicochemical; details: 20 mM potassium phosphate buffer, pH 6.2, 10% D2O
Method: To detect line broadening, standard ^1H-NMR spectra were acquired. T2 decay curves were generated by measuring the CPMG NMR spectra of the molecules, performed as described above. The number of echo cycles corresponds to the decay time. The intensity of the aromatic peaks at the indicated decay times were measured and normalized to a maximum intensity of 1 at the 10 ms decay time. The curves were fitted to a one phase decay model using Prism software (Graphpad). Excitation sculpting was used for solvent suppression. Samples for both analyses were prepared in 20 mM potassium phosphate buffer, pH 6.2, 10% (v/v) D2O. Results of these measurements are described in FIGS. 12-13.

T1 sequence (Q07812 whole entry): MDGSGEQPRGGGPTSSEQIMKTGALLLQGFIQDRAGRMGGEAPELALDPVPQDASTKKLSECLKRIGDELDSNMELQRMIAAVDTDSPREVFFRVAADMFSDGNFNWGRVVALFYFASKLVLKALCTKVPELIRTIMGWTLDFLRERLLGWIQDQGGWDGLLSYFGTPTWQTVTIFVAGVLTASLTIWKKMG

O=C1C(I)=CC(=C(c2cc(I)c(O)c(I)c2)c2ccccc2C(=O)O)C=C1I [I4PTH]
light scattering (aggregation in solution) [1]: dose-dependent increase in light scattering

BIM SAHBA2: stapled BIM BH3 helix (aa 145-164), Ac-EIWIAQELRXIGDXFNAYYA-CONH2, X=stapling amino acid; direct BAX activator positive control
competition with FITC-BIM SAHBA2 for BAX interaction [2]: dose-responsively competed
maximal BAX-mediated liposomal release ([3]; BIM SAHBA2 alone with BAX): 50%
direct BAX activation in liposomal release ([3]; single agent with BAX): induced time-responsive liposomal release

Oc1ccc(Oc2ccccc2)cc1 [BIF-44]
T2 decay (aggregation) [4]: does not exhibit rapid or dose dependent decrease in T2 decay
line broadening in 1H-NMR spectrum (aggregation) [4]: does not exhibit line broadening
light scattering (aggregation in solution) [1]: does not aggregate in solution

Nc1ccc(Nc2ccccc2)cc1 [4-ADPA]
T2 decay (aggregation) [4]: rapid T2 decay
light scattering (aggregation in solution) [1]: dose-dependent increase in light scattering
